Laboratory results taken from patent publication US20230183292A1, “IMMUNOMODULATORS” (priority 2020, published 2023).
Positions of bridges follow the written chain, without caps; N, C: chain ends. Non-standard residues stand in square brackets, D forms with d. Residues, ends and D or L forms follow the SMILES beside them. *: point of attachment. X24 = C[C@H](CCC(=O)*)[C@H]1CC[C@H]2[C@@H]3[C@H](O)[C@H](O)[C@@H]4C[C@H](O)CC[C@]4(C)[C@H]3CC[C@]12C; X23 = C[C@H](CCC(=O)*)[C@H]1CC[C@H]2[C@@H]3C(=O)[C@H](O)[C@@H]4C[C@H](O)CC[C@]4(C)[C@H]3CC[C@]12C; X10 = C[C@H](CCC(=O)*)[C@H]1CC[C@H]2[C@@H]3C(=O)C[C@@H]4C[C@H](O)CC[C@]4(C)[C@H]3CC(=O)[C@]12C; X19 = C[C@H](CCC(=O)*)[C@H]1CC[C@H]2[C@@H]3CC(=O)[C@@H]4C[C@H](O)CC[C@]4(C)[C@H]3CC[C@]12C; X33 = C[C@H](CCC(=O)*)[C@H]1CC[C@H]2[C@@H]3C(=O)C[C@@H]4C[C@H](O)CC[C@]4(C)[C@H]3CC[C@]12C; X16 = C[C@H](CCC(=O)*)[C@H]1CC[C@H]2[C@@H]3CC(=O)[C@@H]4CC(=O)CC[C@]4(C)[C@H]3CC[C@]12C; Trp(1-CH2COOH) = N[C@@H](Cc1cn(CC(=O)O)c2ccccc12)C(=O)O; Hyp = O=C(O)[C@@H]1C[C@@H](O)CN1; NMeNle = CCCC[C@H](NC)C(=O)O; NMeA = CN[C@@H](C)C(=O)O; Dab = NCC[C@H](N)C(=O)O; Dap = NC[C@H](N)C(=O)O

Molecular target: T1, PD-1/PD-L1 (Homo sapiens, UniProt Q9NZQ7)
T1 construct: TVMV protease site (C); made in house; host or cells: HEK293T cells
Experiment: PD-1/PD-L1 Homogenous Time-Resolved Fluorescence (HTRF) binding assay
Conditions: PD-L1-His 10 nM, PD-1-Ig 20 nM; read-out: HTRF IC50
Description: The ability of the compounds of formula (I) to bind to PD-L1 was investigated using a PD-1/PD-L1 Homogenous Time-Resolved Fluorescence (HTRF) binding assay.
The interaction of PD-1 and PD-L1 can be assessed using soluble, purified preparations of the extracellular domains of the two proteins. The PD-1 and PD-L1 protein extracellular domains were expressed as fusion proteins with detection tags, for PD-1, the tag was the Fc portion of Immunoglobulin (PD-1-Ig) and for PD-L1 it was the 6 histidine motif (PD-L1-His). All binding studies were performed in an HTRF assay buffer consisting of dPBS supplemented with 0.1% […] bovine serum albumin and 0.05% (v/v) Tween-20. For the h/PD-L1-His binding assay, inhibitors were pre-incubated with PD-L1-His (10 nM final) for 15 m in 4 μl of assay buffer, followed by addition of PD-1-Ig (20 nM final) in 1 μl of assay buffer and further incubation for 15 m. HTRF detection was achieved using europium crypate-labeled anti-Ig (1 nM final) and allophycocyanin (APC) labeled anti-His (20 nM final). Antibodies were diluted in HTRF detection buffer and 5 μl was dispensed on top of the binding reaction. The reaction mixture was allowed to equilibrate for 30 minutes and the resulting signal (665 nm/620 nm ratio) was obtained using an EnVision fluorometer. Additional binding assays were established between the human proteins PD-1-Ig/PD-L2-His (20 & 5 nM, respectively) and CD80-His/PD-L1-Ig (100 & 10 nM, respectively).
Recombinant Proteins: Human PD-1 (25-167) with a C-terminal human Fc domain of immunoglobulin G (Ig) epitope tag [hPD-1 (25-167)-3S-IG] and human PD-L1 (18-239) with a C-terminal His epitope tag [hPD-L1(18-239)-TVMV-His] were expressed in HEK293T cells and purified sequentially by ProteinA affinity chromatography and size exclusion chromatography. Human PD-L2-His and CD80-His was obtained through commercial sources.
Table 1 lists the IC50 values for representative examples of this disclosure measured in the PD-1/PD-L1 Homogenous Time-Resolved Fluorescence (HTRF) binding assay.

T1 sequence (Q9NZQ7 18-239): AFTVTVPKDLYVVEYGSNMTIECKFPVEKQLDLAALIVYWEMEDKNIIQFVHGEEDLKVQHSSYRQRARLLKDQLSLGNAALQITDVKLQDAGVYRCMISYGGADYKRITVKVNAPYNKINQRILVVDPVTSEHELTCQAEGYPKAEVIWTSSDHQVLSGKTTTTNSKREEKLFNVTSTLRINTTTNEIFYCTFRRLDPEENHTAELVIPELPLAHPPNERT

Structure (SMILES) | IC50 [nM]
CCCC[C@H]1C(=O)N(C)[C@@H](CCCC)C(=O)N[C@@H](CC(C)C)C(=O)N[C@H](C(=O)NCC(N)=O)CSCC(=O)N[C@@H](Cc2ccc(O)cc2)C(=O)N(C)[C@@H](C)C(=O)N[C@@H](CC(N)=O)C(=O)N2CCC[C@H]2C(=O)N[C@@H](CNC(=O)CC[C@@H](C)[C@H]2CC[C@H]3[C@@H]4C(=O)[C@H](O)[C@@H]5C[C@H](O)CC[C@]5(C)[C@H]4CC[C@]23C)C(=O)N[C@@H](CC(C)C)C(=O)N2C[C@H](O)C[C@H]2C(=O)N[C@@H](Cc2c[nH]c3ccccc23)C(=O)N[C@@H](CCNC(=O)CC[C@@H](C)[C@H]2CC[C@H]3[C@@H]4[C@H](O)[C@H](O)[C@@H]5C[C@H](O)CC[C@]5(C)[C@H]4CC[C@]23C)C(=O)N[C@@H](Cc2cn(CC(=O)O)c3ccccc23)C(=O)N1C [Example 1015] ({CH2CO}-Y[NMeA]NP[Dap](X23)L[Hyp]W[Dab](X24)[Trp(1-CH2COOH)][NMeNle][NMeNle]LCG-NH2; thioether N-14) | 9.3
CCCC[C@H]1C(=O)N(C)[C@@H](CCCC)C(=O)N[C@@H](CC(C)C)C(=O)N[C@H](C(=O)NCC(N)=O)CSCC(=O)N[C@@H](Cc2ccc(O)cc2)C(=O)N(C)[C@@H](C)C(=O)N[C@@H](CC(N)=O)C(=O)N2CCC[C@H]2C(=O)N[C@@H](CNC(=O)CC[C@@H](C)[C@H]2CC[C@H]3[C@@H]4C(=O)C[C@@H]5C[C@H](O)CC[C@]5(C)[C@H]4CC[C@]23C)C(=O)N[C@@H](CC(C)C)C(=O)N2C[C@H](O)C[C@H]2C(=O)N[C@@H](Cc2c[nH]c3ccccc23)C(=O)N[C@@H](CCNC(=O)CC[C@@H](C)[C@H]2CC[C@H]3[C@@H]4C(=O)C[C@@H]5C[C@H](O)CC[C@]5(C)[C@H]4CC[C@]23C)C(=O)N[C@@H](Cc2cn(CC(=O)O)c3ccccc23)C(=O)N1C [Example 1016] ({CH2CO}-Y[NMeA]NP[Dap](X33)L[Hyp]W[Dab](X33)[Trp(1-CH2COOH)][NMeNle][NMeNle]LCG-NH2; thioether N-14) | 12
CCCC[C@H]1C(=O)N(C)[C@@H](CCCC)C(=O)N[C@@H](CC(C)C)C(=O)N[C@H](C(=O)NCC(N)=O)CSCC(=O)N[C@@H](Cc2ccc(O)cc2)C(=O)N(C)[C@@H](C)C(=O)N[C@@H](CC(N)=O)C(=O)N2CCC[C@H]2C(=O)N[C@@H](CNC(=O)CC[C@@H](C)[C@H]2CC[C@H]3[C@@H]4CC(=O)[C@@H]5C[C@H](O)CC[C@]5(C)[C@H]4CC[C@]23C)C(=O)N[C@@H](CC(C)C)C(=O)N2C[C@H](O)C[C@H]2C(=O)N[C@@H](Cc2c[nH]c3ccccc23)C(=O)N[C@@H](CCNC(=O)CC[C@@H](C)[C@H]2CC[C@H]3[C@@H]4CC(=O)[C@@H]5C[C@H](O)CC[C@]5(C)[C@H]4CC[C@]23C)C(=O)N[C@@H](Cc2cn(CC(=O)O)c3ccccc23)C(=O)N1C [Example 1017] ({CH2CO}-Y[NMeA]NP[Dap](X19)L[Hyp]W[Dab](X19)[Trp(1-CH2COOH)][NMeNle][NMeNle]LCG-NH2; thioether N-14) | 15
CCCC[C@H]1C(=O)N(C)[C@@H](CCCC)C(=O)N[C@@H](CC(C)C)C(=O)N[C@H](C(=O)NCC(N)=O)CSCC(=O)N[C@@H](Cc2ccc(O)cc2)C(=O)N(C)[C@@H](C)C(=O)N[C@@H](CC(N)=O)C(=O)N2CCC[C@H]2C(=O)N[C@@H](CNC(=O)CC[C@@H](C)[C@H]2CC[C@H]3[C@@H]4C(=O)C[C@@H]5C[C@H](O)CC[C@]5(C)[C@H]4CC(=O)[C@]23C)C(=O)N[C@@H](CC(C)C)C(=O)N2C[C@H](O)C[C@H]2C(=O)N[C@@H](Cc2c[nH]c3ccccc23)C(=O)N[C@@H](CCNC(=O)CC[C@@H](C)[C@H]2CC[C@H]3[C@@H]4C(=O)C[C@@H]5C[C@H](O)CC[C@]5(C)[C@H]4CC(=O)[C@]23C)C(=O)N[C@@H](Cc2cn(CC(=O)O)c3ccccc23)C(=O)N1C [Example 1018] ({CH2CO}-Y[NMeA]NP[Dap](X10)L[Hyp]W[Dab](X10)[Trp(1-CH2COOH)][NMeNle][NMeNle]LCG-NH2; thioether N-14) | 6.2
CCCC[C@H]1C(=O)N(C)[C@@H](CCCC)C(=O)N[C@@H](CC(C)C)C(=O)N[C@H](C(=O)NCC(N)=O)CSCC(=O)N[C@@H](Cc2ccc(O)cc2)C(=O)N(C)[C@@H](C)C(=O)N[C@@H](CC(N)=O)C(=O)N2CCC[C@H]2C(=O)N[C@@H](CNC(=O)CC[C@@H](C)[C@H]2CC[C@H]3[C@@H]4CC(=O)[C@@H]5CC(=O)CC[C@]5(C)[C@H]4CC[C@]23C)C(=O)N[C@@H](CC(C)C)C(=O)N2C[C@H](O)C[C@H]2C(=O)N[C@@H](Cc2c[nH]c3ccccc23)C(=O)N[C@@H](CCNC(=O)CC[C@@H](C)[C@H]2CC[C@H]3[C@@H]4CC(=O)[C@@H]5CC(=O)CC[C@]5(C)[C@H]4CC[C@]23C)C(=O)N[C@@H](Cc2cn(CC(=O)O)c3ccccc23)C(=O)N1C [Example 1019] ({CH2CO}-Y[NMeA]NP[Dap](X16)L[Hyp]W[Dab](X16)[Trp(1-CH2COOH)][NMeNle][NMeNle]LCG-NH2; thioether N-14) | 13
